According to PubChem BioAssay (NCI):
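Dose response: 5 concentrations. Exposure: 48 h. Format: 96-well plates. Endpoint: linear interpolation; highest concentration if not reached. Here, GI50 denotes the concentration required for 50% inhibition of growth. TGI marks complete inhibition of growth.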

Assays:
Test in all cases: DTP human tumour cell line panel, 48 h
IGROV1 ovarian = tested on: IGROV1 ovarian
OVCAR-4 ovarian = tested on: OVCAR-4 ovarian
NCI-H23 lung = tested on: NCI-H23 lung
HOP-62 NSCLC = tested on: HOP-62 NSCLC
LOX IMVI melanoma = tested on: LOX IMVI melanoma
TK-10 renal = tested on: TK-10 renal
MALME-3M melanoma = tested on: MALME-3M melanoma
HOP-92 NSCLC = tested on: HOP-92 NSCLC
OVCAR-5 ovarian = tested on: OVCAR-5 ovarian

SMILES | TGI (IGROV1 ovarian) [µM] | TGI (OVCAR-4 ovarian) [µM] | TGI (NCI-H23 lung) [µM] | TGI (HOP-62 NSCLC) [µM] | TGI (LOX IMVI melanoma) [µM] | TGI (TK-10 renal) [µM] | TGI (MALME-3M melanoma) [µM] | TGI (HOP-92 NSCLC) [µM] | TGI (OVCAR-5 ovarian) [µM] | GI50 (IGROV1 ovarian) [µM] | GI50 (OVCAR-4 ovarian) [µM] | GI50 (MALME-3M melanoma) [µM] | GI50 (HOP-92 NSCLC) [µM] | GI50 (NCI-H23 lung) [µM] | GI50 (HOP-62 NSCLC) [µM] | GI50 (LOX IMVI melanoma) [µM] | GI50 (TK-10 renal) [µM] | GI50 (OVCAR-5 ovarian) [µM]
CCOC(=O)c1nc(-c2ccccc2)oc1OCC | > 100 | > 100 | > 100 | > 100 | > 100 | > 100 | – | – | – | – | – | – | – | – | – | – | – | –
O=C1c2ccccc2CC1C1(O)C(=O)Nc2ccccc21 (stereo unspecified) | > 100 | > 100 | > 100 | > 100 | > 100 | > 100 | > 100 | > 100 | > 100 | – | – | – | – | – | – | – | – | –
N.N.NCCCCCCN.O=C([O-])CC(=O)[O-].O=C([O-])CC(=O)[O-].[Pt+4].[Pt+4] | > 100 | > 100 | > 100 | > 100 | > 100 | > 100 | > 100 | > 100 | > 100 | > 100 | > 78.5 | > 100 | > 100 | 57.3 | 38.7 | > 100 | > 100 | > 100
CCC1CCc2c(OC)ccc(OCC(=O)O)c2C1=O (stereo unspecified) | > 100 | > 100 | > 100 | > 100 | > 100 | > 100 | > 100 | – | > 100 | – | – | – | – | – | – | – | – | –
CC1CCC(C(C)C)C(O[C@@H]2OC(=O)C[C@@H]2Sc2ccccc2)C1 (stereo partly specified) | > 100 | 41.9 | 96.3 | 96 | 26.3 | > 100 | 58.7 | – | 65.5 | – | – | – | – | – | – | – | – | –
COc1ccc(-c2nn(-c3cccc(Cl)c3)cc2-c2cc(-c3ccccc3)nc(N)n2)cc1 | 16.5 | 9.64 | 10.4 | 6.41 | – | 24.1 | 31.8 | 4.77 | 11 | 4.2 | 2.42 | 8.95 | 1.06 | 2.83 | 2.5 | – | 11.8 | 2.94
C=C1CCC2[C@@H](CCC3[C@]2(C)CCC[C@]3(C)C(=O)OC)C1CCO (stereo partly specified) | 29.6 | 26.6 | 23.2 | 41.7 | – | 34.1 | 35.8 | 20.1 | 33.2 | – | – | – | – | – | – | – | – | –
CC(=O)Nc1ccc(/C=C/C(=O)c2sc(-c3nc(C)c(C(=O)/C=C/c4ccc(NC(C)=O)cc4)s3)nc2C)cc1 | > 100 | > 100 | > 100 | > 100 | > 100 | > 100 | > 100 | – | > 100 | – | – | – | – | – | – | – | – | –
CC#CC1C(OC(=O)c2ccccc2)CCCC1(CI)N=[N+]=[N-] (stereo unspecified) | > 100 | > 100 | > 100 | > 100 | – | > 100 | > 100 | > 100 | > 100 | – | – | – | – | – | – | – | – | –
C=CCC(OCCOCC)c1cc(OCCOCC)ccc1OC (stereo unspecified) | > 100 | > 100 | – | > 100 | > 100 | > 100 | > 100 | > 100 | > 100 | – | – | – | – | – | – | – | – | –
O=C1NC2C=CN(Cc3ccccc3)C=C2C(=O)N2CCCC12 (stereo unspecified) | > 100 | > 100 | > 100 | > 100 | – | > 100 | > 100 | > 100 | > 100 | – | – | – | – | – | – | – | – | –
O=C(Nc1nc(=S)c2c(ncn2CCO)[nH]1)c1ccccc1 | > 100 | > 100 | – | > 100 | > 100 | > 100 | > 100 | > 100 | > 100 | – | – | – | – | – | – | – | – | –
N#Cc1cc([N+](=O)[O-])ccc1NC(=O)/C(=N/N)C(C(=O)c1ccc(Cl)c(Cl)c1)C1OC(=O)c2ccccc21 (stereo unspecified) | > 100 | > 100 | > 100 | > 100 | > 100 | – | > 100 | 60 | > 100 | – | – | – | – | – | – | – | – | –
C=CC1C(OC2OC(CO)C(O)C(O)C2O)OC=C(C(=O)OC)C1CC=O (stereo unspecified) | > 100 | > 100 | > 100 | > 100 | > 100 | – | > 100 | – | – | – | – | – | – | – | – | – | – | –
C/C=C/C=C/CCCCCCCCCCCCCC1(OC)C=CC(CC(=O)OC)OO1 (stereo unspecified) | 1.03 | 2.48 | 14 | 41.6 | 3.9 | 4.81 | 50.8 | 4.12 | – | 0.509 | 1.15 | – | – | 4.3 | 20 | 2.02 | 2.26 | –
C[C@@H](NC1CCC[C@H]1O)c1ccccc1 (stereo partly specified) | > 100 | > 100 | – | > 100 | > 100 | > 100 | > 100 | > 100 | > 100 | – | – | – | – | – | – | – | – | –
CC(=O)NC1CC2Oc3ccc(C)cc3C(C)(O2)C1O (stereo unspecified) | > 100 | – | > 100 | > 100 | > 100 | > 100 | > 100 | – | – | – | – | – | – | – | – | – | – | –
COc1cc(C)c(O)c(C(=O)O)c1 | > 100 | > 100 | > 100 | > 100 | > 100 | > 100 | > 100 | – | > 100 | – | – | – | – | – | – | – | – | –
O=C(CCc1cc(-c2ccccc2)nc(=S)[nH]1)Nc1ccccc1[N+](=O)[O-] | > 100 | – | > 100 | > 100 | > 100 | > 100 | > 100 | > 100 | > 100 | – | – | – | – | – | – | – | – | –
